Results: ChEMBL document CHEMBL5523684, “Development of a tetrahydroindazolone-based HDAC6 inhibitor with in-vivo anti-arthritic activity” (Bioorg Med Chem, 2024)

How the values were obtained:
Homo sapiens = species on record: Homo sapiens; test: Selectivity index, ratio of IC50 for inhibition of his-tagged human recombinant HDAC1 using fluor de lys-SIRT1 as substrate to IC50 for inhibition of N-terminal GST-tagged human recombinant HDAC6 expressed in Spodoptera frugiperda
Histone deacetylase 11 = molecular target: T1, Histone deacetylase 11 (Homo sapiens, UniProt Q96DB2); test: Inhibition of human recombinant HDAC11 using fluorescent peptide p53 (379 to 382 residues) RHKK(Ac) as substrate by fluorescence based analysis
T1 sequence (Q96DB2 whole entry): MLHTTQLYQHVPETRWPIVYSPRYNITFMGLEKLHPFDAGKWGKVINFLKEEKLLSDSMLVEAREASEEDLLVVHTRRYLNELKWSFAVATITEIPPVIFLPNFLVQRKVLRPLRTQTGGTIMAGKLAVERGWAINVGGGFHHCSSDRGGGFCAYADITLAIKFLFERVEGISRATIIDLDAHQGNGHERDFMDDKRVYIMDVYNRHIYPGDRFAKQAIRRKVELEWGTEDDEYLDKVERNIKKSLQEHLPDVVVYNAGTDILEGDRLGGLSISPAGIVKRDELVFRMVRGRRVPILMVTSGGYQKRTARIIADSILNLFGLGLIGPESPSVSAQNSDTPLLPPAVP

Histone deacetylase 7 = molecular target: T2, Histone deacetylase 7 (Homo sapiens, UniProt Q8WUI4); test: Inhibition of human recombinant HDAC7 using Boc-Lys(tri-fluoroacetyl)-AMC as substrate by fluorescence based analysis
T2 sequence (Q8WUI4 whole entry): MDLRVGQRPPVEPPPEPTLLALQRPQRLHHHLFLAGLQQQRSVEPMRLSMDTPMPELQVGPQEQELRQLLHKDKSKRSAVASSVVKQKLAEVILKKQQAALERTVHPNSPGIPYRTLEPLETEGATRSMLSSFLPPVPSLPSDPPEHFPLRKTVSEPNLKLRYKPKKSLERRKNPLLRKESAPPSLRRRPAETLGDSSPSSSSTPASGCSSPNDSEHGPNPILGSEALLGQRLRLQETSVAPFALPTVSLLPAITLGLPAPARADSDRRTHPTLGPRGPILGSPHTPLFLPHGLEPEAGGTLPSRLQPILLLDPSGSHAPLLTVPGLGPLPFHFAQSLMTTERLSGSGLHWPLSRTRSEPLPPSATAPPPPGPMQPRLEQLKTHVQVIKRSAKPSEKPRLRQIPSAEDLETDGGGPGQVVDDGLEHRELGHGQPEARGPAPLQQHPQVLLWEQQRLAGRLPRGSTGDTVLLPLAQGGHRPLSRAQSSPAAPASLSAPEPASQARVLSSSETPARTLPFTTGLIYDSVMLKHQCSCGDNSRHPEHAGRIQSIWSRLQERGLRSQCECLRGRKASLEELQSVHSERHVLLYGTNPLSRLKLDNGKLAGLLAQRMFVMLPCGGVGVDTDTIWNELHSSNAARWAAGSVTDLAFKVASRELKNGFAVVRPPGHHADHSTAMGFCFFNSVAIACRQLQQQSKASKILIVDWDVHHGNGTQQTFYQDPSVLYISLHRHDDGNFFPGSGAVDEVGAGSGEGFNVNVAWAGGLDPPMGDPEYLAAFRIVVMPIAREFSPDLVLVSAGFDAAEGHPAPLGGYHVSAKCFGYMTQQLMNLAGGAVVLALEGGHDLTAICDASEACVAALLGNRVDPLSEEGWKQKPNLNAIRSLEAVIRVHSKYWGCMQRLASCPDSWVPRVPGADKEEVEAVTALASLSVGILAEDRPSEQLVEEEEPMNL

Histone deacetylase 8 = molecular target: T3, Histone deacetylase 8 (Homo sapiens, UniProt Q9BY41); test: Inhibition of human recombinant HDAC8 using fluorescent peptide p53 (379 to 382 residues) (RHK(Ac)K(Ac)) as substrate by fluorescence based analysis
T3 sequence (Q9BY41 whole entry): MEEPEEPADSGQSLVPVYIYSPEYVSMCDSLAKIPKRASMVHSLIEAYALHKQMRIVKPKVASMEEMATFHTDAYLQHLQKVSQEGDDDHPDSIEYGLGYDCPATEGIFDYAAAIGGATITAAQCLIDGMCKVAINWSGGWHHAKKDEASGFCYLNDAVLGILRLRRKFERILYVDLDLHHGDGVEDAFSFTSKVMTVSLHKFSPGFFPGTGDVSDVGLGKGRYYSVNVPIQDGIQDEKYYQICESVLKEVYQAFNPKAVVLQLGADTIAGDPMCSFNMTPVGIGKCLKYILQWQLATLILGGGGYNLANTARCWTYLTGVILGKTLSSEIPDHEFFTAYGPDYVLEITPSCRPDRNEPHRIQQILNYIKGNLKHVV

Histone deacetylase 3 = Histone deacetylase 3 (Homo sapiens, UniProt O15379)
[1] = Half life in dog at 5 mg/kg, po; format: ADME, organism-based, Canis lupus familiaris; settings: in vivo
Histone deacetylase 2 = Histone deacetylase 2 (Homo sapiens, UniProt Q92769); test: Inhibition of human recombinant HDAC2 using fluorescent peptide p53 (379 to 382 residues) RHKK(Ac) as substrate by fluorescence based analysis
[2] = Half life in dog at 0.5 mg/kg, iv; format: ADME, organism-based, Canis lupus familiaris; settings: in vivo
[3] = molecular target: T4, Polyamine deacetylase HDAC10 (Homo sapiens, UniProt Q969S8); test: Inhibition of human recombinant HDAC10 using fluorescent peptide p53 (379 to 382 residues) RHKK(Ac) as substrate by fluorescence based analysis
T4 sequence (Q969S8 whole entry): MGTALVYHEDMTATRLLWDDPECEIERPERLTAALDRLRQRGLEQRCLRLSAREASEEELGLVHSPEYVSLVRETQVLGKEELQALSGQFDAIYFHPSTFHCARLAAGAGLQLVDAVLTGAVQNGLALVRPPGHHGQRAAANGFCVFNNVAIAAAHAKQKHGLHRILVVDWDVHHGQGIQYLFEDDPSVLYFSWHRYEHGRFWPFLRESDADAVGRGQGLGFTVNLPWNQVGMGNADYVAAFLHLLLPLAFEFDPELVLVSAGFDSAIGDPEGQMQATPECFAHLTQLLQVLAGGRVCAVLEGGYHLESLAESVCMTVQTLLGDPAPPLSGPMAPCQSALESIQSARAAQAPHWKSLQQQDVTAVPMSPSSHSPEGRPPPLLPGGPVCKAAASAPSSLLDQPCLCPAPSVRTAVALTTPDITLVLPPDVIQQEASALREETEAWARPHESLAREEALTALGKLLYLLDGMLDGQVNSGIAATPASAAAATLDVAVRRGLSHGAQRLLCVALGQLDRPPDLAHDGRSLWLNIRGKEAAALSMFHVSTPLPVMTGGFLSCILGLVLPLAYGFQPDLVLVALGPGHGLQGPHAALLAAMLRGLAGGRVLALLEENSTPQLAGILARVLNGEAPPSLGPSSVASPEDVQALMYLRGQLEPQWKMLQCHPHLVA

[4] = AUClast in dog at 0.5 mg/kg, iv; format: ADME, organism-based, Canis lupus familiaris; settings: in vivo
[5] = C0 in mouse at 10 mg/kg, iv; format: ADME, organism-based; settings: in vivo
Histone deacetylase 1 = Histone deacetylase 1 (Homo sapiens, UniProt Q13547); test: Inhibition of human recombinant HDAC1 using fluorescent peptide p53 (379 to 382 residues) RHKK(Ac) as substrate by fluorescence based analysis
Chain of Histone deacetylase 1 (Q13547 whole entry, the tested form may be a part): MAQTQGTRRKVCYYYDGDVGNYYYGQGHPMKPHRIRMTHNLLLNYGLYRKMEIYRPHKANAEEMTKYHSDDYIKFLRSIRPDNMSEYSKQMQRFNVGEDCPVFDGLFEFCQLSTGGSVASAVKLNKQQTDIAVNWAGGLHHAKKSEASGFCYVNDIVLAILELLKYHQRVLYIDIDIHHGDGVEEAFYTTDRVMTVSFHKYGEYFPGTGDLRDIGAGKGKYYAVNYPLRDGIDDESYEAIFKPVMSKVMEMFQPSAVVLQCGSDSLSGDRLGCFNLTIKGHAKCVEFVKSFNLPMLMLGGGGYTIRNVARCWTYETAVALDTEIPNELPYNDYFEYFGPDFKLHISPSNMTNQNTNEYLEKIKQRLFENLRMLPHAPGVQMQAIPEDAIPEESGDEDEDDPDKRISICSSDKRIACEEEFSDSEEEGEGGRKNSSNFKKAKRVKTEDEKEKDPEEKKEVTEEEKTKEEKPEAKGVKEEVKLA

Chain of Histone deacetylase 2 (Q92769 whole entry, the tested form may be a part): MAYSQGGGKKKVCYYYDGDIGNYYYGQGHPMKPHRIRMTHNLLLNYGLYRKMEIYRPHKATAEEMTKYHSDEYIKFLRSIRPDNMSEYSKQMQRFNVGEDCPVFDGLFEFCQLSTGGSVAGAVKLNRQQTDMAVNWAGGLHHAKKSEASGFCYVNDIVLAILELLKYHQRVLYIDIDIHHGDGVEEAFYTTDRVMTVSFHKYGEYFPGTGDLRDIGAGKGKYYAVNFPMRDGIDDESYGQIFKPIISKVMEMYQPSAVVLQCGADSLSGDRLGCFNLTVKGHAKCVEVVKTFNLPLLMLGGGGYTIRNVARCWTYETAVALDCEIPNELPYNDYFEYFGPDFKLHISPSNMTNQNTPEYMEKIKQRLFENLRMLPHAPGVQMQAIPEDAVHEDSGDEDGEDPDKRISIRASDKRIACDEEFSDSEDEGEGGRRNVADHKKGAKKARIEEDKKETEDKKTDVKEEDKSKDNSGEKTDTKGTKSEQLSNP
Chain of Histone deacetylase 3 (O15379 whole entry): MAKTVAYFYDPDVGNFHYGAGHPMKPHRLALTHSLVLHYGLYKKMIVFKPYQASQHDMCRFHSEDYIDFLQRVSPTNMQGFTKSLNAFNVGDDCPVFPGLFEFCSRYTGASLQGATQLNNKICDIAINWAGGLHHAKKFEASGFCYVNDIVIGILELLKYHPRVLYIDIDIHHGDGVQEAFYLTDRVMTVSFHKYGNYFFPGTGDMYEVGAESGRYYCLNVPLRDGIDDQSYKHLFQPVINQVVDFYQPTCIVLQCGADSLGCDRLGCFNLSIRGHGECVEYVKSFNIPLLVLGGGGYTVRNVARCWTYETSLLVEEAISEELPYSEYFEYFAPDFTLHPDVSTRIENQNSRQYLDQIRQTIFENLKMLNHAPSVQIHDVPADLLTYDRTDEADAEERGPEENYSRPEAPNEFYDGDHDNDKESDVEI

Compound	Ratio IC50 (Homo sapiens)	IC50 (Histone deacetylase 11) [µM]	IC50 (Histone deacetylase 7) [µM]	IC50 (Histone deacetylase 8) [µM]	IC50 (Histone deacetylase 3) [µM]	half-life [1] [h]	IC50 (Histone deacetylase 2) [µM]	half-life [2] [h]	IC50 [3] [µM]	AUC(0-t) [4] [ng·h/mL]	C0 [5] [ng/mL]	IC50 (Histone deacetylase 1) [µM]
CC1(C)CC(=O)c2c(C(F)(F)F)nn(Cc3ccc(C(=O)NO)cc3)c2C1	217	> 20	> 20	> 20	> 20	1.4	> 20	0.6	> 20	446	4290	> 20
O=C(NO)c1ccc(Cn2c3c(c4ccccc42)C(=O)CCC3)cc1	168	> 20	> 20	> 20	> 20	–	> 20	–	> 20	–	–	18.1
